According to patent US20070078058A1, “Use of MCPP to inhibit tuber sprouting” (ACETO AGRICULTURAL CHEMICALS CORP., priority 2005, published 2007):

How the values were obtained:
[1] = test system: Russet Norkotah potatoes; experiment: Sprout inhibition of stored Russet Norkotah potatoes (first trial, 54 degrees F.); type: in vivo, Solanum tuberosum
Text: (§1) The storage system was designed to duplicate a large commercial storage facility in miniature. Drums containing 150-200 pounds of potatoes were sealed and housed in a building in which temperature was maintained throughout the testing period at 54 degrees F. for the first summer trial with Norkotah potatoes and 46 degrees F. for the Russet Burbank potatoes in the second trial. During both trials the humidity was maintained at […]. Formed in each drum is an inlet in which untreated air (ventilation air) was introduced under a perforated floor to the drum. The ventilation air moves through the pile of potatoes and is exhausted from the top of the drum to the outside of the building.
(§2) This storage ventilation was shut down for a 24 hour duration during and directly after the treatment of the chemicals. Then it is maintained for the duration of the trial, with ventilation air forced through the drums at a rate of 0.5 cubic feet per minute on a three-hour on and a three-hour off schedule.
(§3) In the spray application technique the formulations were mixed with water and sprayed on the newly harvested tubers at a rate of 5 and 10 parts per million (weight of the active to weight of the potatoes) mixed in a water carrier. The mixture was applied at 1 quart per ton of potatoes. The spray was applied via a hand held spray gun propelled with compressed air as the tubers were rotating in a cement mixer drum. This insured that all surface area is coated with the active ingredient.
All of the treatments in the reported test on Russet Norkotah used this technique with the exception of Untreated and CIPC A (CIPC 98A) that was thermal fogged.
(§4) The custom thermal fogger's heat source was an electric hot plate set at 500 degrees F. This temperature is monitored throughout the application with a thermal couple that is inserted in a cavity just below the surface where the chemical is placed. A chamber was attached to the hot plate. A fan was mounted to the top of the chamber. The fogger was attached to the storage container with flexible tubing.
(§5) The fog was delivered to each drum through separate ports. Through the bottom port of the storage drum a perforated stinger was installed that runs the length of the drum. Flexible tubing delivered the fog air mixture from the fogger. The fog air mixture was returned to the thermal fogger through a second flexible tubing that was attached from the top of the storage drum to the bottom of the thermal fogger. The air fog mixture was re-circulated through the system for five minutes.
Russet Norkotah potatoes were selected for the first trial for their short natural dormancy and aggressive sprouting.
(§6) The potatoes were monitored for sprout activity on a regular basis after treatment. When early sprout activity was observed the potatoes were first evaluated. Then at approximately 30 day intervals, 60 tubers were randomly selected from each treatment. Each tuber was rated for the length of the longest sprout on each tuber. The scale used for the rating system as is follows: • 0—Not Peeping=no sprout or swelling of eye tissue evident. • 1—Peeping=swelling of eye tissue up to a sprout length of 3 mm • 2—sprout length from 3 mm to 1 cm. • 3—sprout length from 1 cm to 3 cm. • 4—sprout length from 3 cm to 5 cm. • 5—sprout length from 5 cm and longer
(§7) Results of each set of 60 tubers were recorded into 6 subsets of 10 tubers each (replicates). Each set is summarized as a percent. The data is also summarized into AVERAGE SPROUT LENGTH and PERCENT OK RE: FRESHPCK (Fresh pack).
(§8) The PERCENT OK RE: FRESHPCK is the percent of the tubers that are NOT PEEPING and PEEPING categories combined together.
(§9) The MCPP spray was a MCPP potassium salt providing 2.5 pounds active ingredient per gallon of inert ingredients (water/coformulants). […]

[2] = Concentration analysis: amounts recovered on the whole potato; details: thermal fog application
Text: Much better results were obtained with the spray applications compared to the thermal fog applications of MCPP, believed to be due to the fact that we established a higher concentration on the tuber via spray.
For example, for spray and thermal fog application, amounts recovered on the whole potato approximately four months later were as follows: MCPP10 ppm applied via thermal fog=0.038 ppm MCPP10 ppm applied via liquid spray=6.3 ppm

[3] = test system: Russet Burbank potatoes; experiment: Sprout inhibition of stored Russet Burbank potatoes (second trial, 46 degrees F.), thermal fogs and liquid sprays; type: in vivo, Solanum tuberosum
Text: as §1, §2, §3, §4, §5
Russet Burbank potatoes were selected for the second trial. The Russet Burbank is noted for its long term storability and is one of the most popular cultivars used for storage as it can be used as both a fresh pack potato and also has very desirable processing qualities.
as §6, §7, §8, §9

[4] = 5 ppm Fog, 132 days after harvest
[5] = 5 ppm Fog, 161 days after harvest
[6] = 5 ppm Fog, 191 days after harvest
[7] = 5 ppm Fog, 223 days after harvest
[8] = 5 ppm Fog, 252 days after harvest
[9] = 5 ppm Fog, 283 days after harvest
[10] = 5 ppm Spray, 132 days after harvest
[11] = 5 ppm Spray, 161 days after harvest
[12] = 5 ppm Spray, 191 days after harvest
[13] = 5 ppm Spray, 223 days after harvest
[14] = 5 ppm Spray, 252 days after harvest
[15] = 5 ppm Spray, 283 days after harvest
[16] = 11 ppm Fog, 132 days after harvest
[17] = 11 ppm Fog, 161 days after harvest
[18] = 11 ppm Fog, 191 days after harvest
[19] = 11 ppm Fog, 223 days after harvest
[20] = 11 ppm Fog, 252 days after harvest
[21] = 11 ppm Fog, 283 days after harvest

| Molecule | % OK for Fresh Pack Dormant + sprout up to 3 mm ([1]; 5 ppm Spray, 53 DAH) [%] | % OK for Fresh Pack Dormant + sprout up to 3 mm ([1]; 5 ppm Spray, 85 DAH) [%] | % OK for Fresh Pack Dormant + sprout up to 3 mm ([1]; 5 ppm Spray, 107 DAH) [%] | % OK for Fresh Pack Dormant + sprout up to 3 mm ([1]; 10 ppm Spray, 53 DAH) [%] | % OK for Fresh Pack Dormant + sprout up to 3 mm ([1]; 10 ppm Spray, 85 DAH) [%] | % OK for Fresh Pack Dormant + sprout up to 3 mm ([1]; 10 ppm Spray, 107 DAH) [%] | % OK For Fresh Pack Dormant + sprout up to 3 mm [3, 4] [%] | % OK For Fresh Pack Dormant + sprout up to 3 mm [3, 5] [%] | % OK For Fresh Pack Dormant + sprout up to 3 mm [3, 6] [%] | % OK For Fresh Pack Dormant + sprout up to 3 mm [3, 7] [%] | % OK For Fresh Pack Dormant + sprout up to 3 mm [3, 8] [%] | % OK For Fresh Pack Dormant + sprout up to 3 mm [3, 9] [%] | % OK For Fresh Pack Dormant + sprout up to 3 mm [3, 10] [%] | % OK For Fresh Pack Dormant + sprout up to 3 mm [3, 11] [%] | % OK For Fresh Pack Dormant + sprout up to 3 mm [3, 12] [%] | % OK For Fresh Pack Dormant + sprout up to 3 mm [3, 13] [%] | % OK For Fresh Pack Dormant + sprout up to 3 mm [3, 14] [%] | % OK For Fresh Pack Dormant + sprout up to 3 mm [3, 15] [%] | % OK For Fresh Pack Dormant + sprout up to 3 mm [3, 16] [%] | % OK For Fresh Pack Dormant + sprout up to 3 mm [3, 17] [%] | also measured |
| --- | --- | --- | --- | --- | --- | --- | --- | --- | --- | --- | --- | --- | --- | --- | --- | --- | --- | --- | --- | --- | --- |
| Cc1cc(Cl)ccc1OC(C)C(=O)O (stereo not shown) [MCPP, 2-(4-Chloro-2-methylphenoxy)propanoic acid] | 98.3 | 53.3 | 1.7 | 100.0 | 71.7 | 25.0 | 93.3 | 3.3 | 0.0 | 0.0 | 0.0 | 0.0 | 100.0 | 95.0 | 73.3 | 38.3 | 6.7 | 5.0 |  |  | stability when exposed to heat [2]: break down rapidly when exposed to heat; % OK For Fresh Pack Dormant + sprout up to 3 mm ([3]; 10 ppm Fog, 132 days after harvest): 100.0%; % OK For Fresh Pack Dormant + sprout up to 3 mm ([3]; 10 ppm Fog, 161 days after harvest): 15.0%; % OK For Fresh Pack Dormant + sprout up to 3 mm ([3]; 10 ppm Fog, 191 days after harvest): 0.0%; % OK For Fresh Pack Dormant + sprout up to 3 mm ([3]; 10 ppm Fog, 223 days after harvest): 0.0%; % OK For Fresh Pack Dormant + sprout up to 3 mm ([3]; 10 ppm Fog, 252 days after harvest): 0.0%; % OK For Fresh Pack Dormant + sprout up to 3 mm ([3]; 10 ppm Fog, 283 days after harvest): 0.0%; % OK For Fresh Pack Dormant + sprout up to 3 mm ([3]; 10 ppm Spray, 132 days after harvest): 100.0%; % OK For Fresh Pack Dormant + sprout up to 3 mm ([3]; 10 ppm Spray, 161 days after harvest): 100.0%; % OK For Fresh Pack Dormant + sprout up to 3 mm ([3]; 10 ppm Spray, 191 days after harvest): 90.0%; % OK For Fresh Pack Dormant + sprout up to 3 mm ([3]; 10 ppm Spray, 223 days after harvest): 65.0%; % OK For Fresh Pack Dormant + sprout up to 3 mm ([3]; 10 ppm Spray, 252 days after harvest): 20.0%; % OK For Fresh Pack Dormant + sprout up to 3 mm ([3]; 10 ppm Spray, 283 days after harvest): 10.0% |
| O=C(O)COc1ccc(Cl)cc1Cl [2,4 D Acid, (2,4-(dichlorophenoxy)-acetic acid, reference compound] |  |  |  |  |  |  | 100.0 | 16.7 | 0.0 | 0.0 | 0.0 | 0.0 |  |  |  |  |  |  |  |  |  |
| O=C(O)CCCOc1ccc(Cl)cc1Cl [2,4 DB] | 81.7 | 3.3 | 0.0 | 91.7 | 11.7 | 0.0 |  |  |  |  |  |  |  |  |  |  |  |  |  |  |  |
| Diisopropylnaphthalene [DIPN, reference compound] |  |  |  |  |  |  |  |  |  |  |  |  |  |  |  |  |  |  | 56.7 | 15 | % OK For Fresh Pack Dormant + sprout up to 3 mm [3, 18]: 0%; % OK For Fresh Pack Dormant + sprout up to 3 mm [3, 19]: 0%; % OK For Fresh Pack Dormant + sprout up to 3 mm [3, 20]: 0%; % OK For Fresh Pack Dormant + sprout up to 3 mm [3, 21]: 0% |
| CC(C)OC(=O)Nc1cccc(Cl)c1 [CIPC 98A, isopropyl 3-chlorophenylcarbamate, reference compound] |  |  |  |  |  |  |  |  |  |  |  |  |  |  |  |  |  |  | 100.0 | 26.7 | % OK for Fresh Pack Dormant + sprout up to 3 mm ([1]; 16.6 ppm Fog, 53 DAH): 100.0%; % OK for Fresh Pack Dormant + sprout up to 3 mm ([1]; 16.6 ppm Fog, 85 DAH): 86.7%; % OK for Fresh Pack Dormant + sprout up to 3 mm ([1]; 16.6 ppm Fog, 107 DAH): 86.7%; % OK For Fresh Pack Dormant + sprout up to 3 mm [3, 18]: 0.0%; % OK For Fresh Pack Dormant + sprout up to 3 mm [3, 19]: 0.0%; % OK For Fresh Pack Dormant + sprout up to 3 mm [3, 20]: 0.0%; % OK For Fresh Pack Dormant + sprout up to 3 mm [3, 21]: 0.0%; % OK For Fresh Pack Dormant + sprout up to 3 mm ([3]; 16.6 ppm Fog, 132 days after harvest): 100.0%; % OK For Fresh Pack Dormant + sprout up to 3 mm ([3]; 16.6 ppm Fog, 161 days after harvest): 26.7%; % OK For Fresh Pack Dormant + sprout up to 3 mm ([3]; 16.6 ppm Fog, 191 days after harvest): 0.0%; % OK For Fresh Pack Dormant + sprout up to 3 mm ([3]; 16.6 ppm Fog, 223 days after harvest): 0.0%; % OK For Fresh Pack Dormant + sprout up to 3 mm ([3]; 16.6 ppm Fog, 252 days after harvest): 0.0%; % OK For Fresh Pack Dormant + sprout up to 3 mm ([3]; 16.6 ppm Fog, 283 days after harvest): 0.0% |
| CCCCC(CC)COC(=O)COc1ccc(Cl)cc1Cl (stereo not shown) [2,4 D LV, Isooctyl (2-ethylhexyl) ester of 2,4-Dichlorphenoxyacetic acid] |  |  |  |  |  |  |  |  |  |  |  |  | 96.7 | 30.0 | 8.3 | 0.0 | 0.0 | 0.0 |  |  |  |
